Assay results from ChEMBL document CHEMBL3244372, “Cholecystokinin (pancreozymin). 3. Synthesis and properties of an analogue of the C-terminal heptapeptide with serine sulfate replacing tyrosine sulfate” (1977).
Active and inactive are the calls of the source. The calls are words filed in the database; no cut-off is given here. Square brackets hold non-standard residues; d marks the D form. Peptide text beside a SMILES is read from it. sY = N[C@@H](Cc1ccc(OS(=O)(=O)O)cc1)C(=O)O

Assays:
Cavia porcellus [1] = species: Cavia porcellus; assay: Increase in [Ca2+] efflux from guinea pig pancreatic acinar cells measured for 5 mins relative to control; assay type: functional
[2] = Increase in [Ca2+] efflux from guinea pig pancreatic acinar cells at 10^-8 M assessed per minute relative to control; assay type: functional, Cavia porcellus
Cavia porcellus [3] = species: Cavia porcellus; assay: Increase in [Ca2+] efflux from guinea pig pancreatic acinar cells at 3 x 10^-11 M measured for 5 mins relative to control; assay type: functional

Compound	Activity (Cavia porcellus [1])	Activity [2] [%]	Activity (Cavia porcellus [3])
CSCC[C@H](NC(=O)[C@H](Cc1c[nH]c2ccccc12)NC(=O)CNC(=O)[C@H](CCSC)NC(=O)[C@@H](N)CO)C(=O)N[C@@H](CC(=O)O)C(=O)N[C@@H](Cc1ccccc1)C(N)=O (H-SMGWMDF-NH2)	Active	–	–
CSCC[C@H](NC(=O)[C@H](Cc1c[nH]c2ccccc12)NC(=O)CNC(=O)[C@H](CCSC)NC(=O)[C@@H](N)Cc1ccc(OS(=O)(=O)O)cc1)C(=O)N[C@@H](CC(=O)O)C(=O)N[C@@H](Cc1ccccc1)C(N)=O (H-[sY]MGWMDF-NH2)	Active	26.2	Active
CSCC[C@H](NC(=O)[C@H](Cc1c[nH]c2ccccc12)NC(=O)CNC(=O)[C@H](CCSC)NC(=O)[C@@H](N)Cc1ccc(O)cc1)C(=O)N[C@@H](CC(=O)O)C(=O)N[C@@H](Cc1ccccc1)C(N)=O (H-YMGWMDF-NH2)	Active	–	–
CSCC[C@H](NC(=O)[C@H](Cc1c[nH]c2ccccc12)NC(=O)CNC(=O)[C@H](CCSC)NC(=O)[C@@H](N)COS(=O)(=O)O)C(=O)N[C@@H](CC(=O)O)C(=O)N[C@@H](Cc1ccccc1)C(N)=O	Active	–	–
